Experimental data reported in ChEMBL document CHEMBL4765294, “Discovery and evaluation of new compounds targeting ribosomal protein S1 in antibiotic-resistant Mycobacterium Tuberculosis” (Eur J Med Chem, 2020).
Calls of active or inactive are those of the source. The rule behind the calls is not given here.

Key:
[1] = Binding affinity to Mycobacterium tuberculosis RpsA Ala438 deleted mutant C-terminal domain (285 to 476 residues) assessed as dissociation constant by fluorescence quenching titration based analysis
[2] = system: Mycobacterium tuberculosis; assay: Binding affinity to Mycobacterium tuberculosis RpsA Ala438 deleted mutant C-terminal domain (285 to 476 residues) at 500 uM by STD based analysis
[3] = system: Mycobacterium tuberculosis; assay: Binding affinity to Mycobacterium tuberculosis RpsA Ala438 deleted mutant C-terminal domain (285 to 476 residues) assessed as quenching rate constant by fluorescence quenching titration based analysis

Question: Which Kd [1] does the source give for `CC(Sc1nc(N)cc(N)n1)C(=O)O` (centres undefined) here?
Answer: 1.74 µM

Question: Which results are given for `CCOC(=O)CSc1nc2nc[nH]c2c(=O)[nH]1`?
Answer: Activity [2]: Active; Kd [1]: 0.31 µM; Kq [3]: 3.4 10^12/M/s

Question: Which Activity [2] does the source give for `Cc1cccc(CNC(=O)COc2cc(O)c3c(=O)cc(-c4ccccc4)oc3c2)c1` here?
Answer: Active

Question: What about the Kd [1] of the same compound?
Answer: 6.91 µM

Question: And the Kq [3]?
Answer: 2.33 10^12/M/s

Question: Which results are given for `Cc1ccc(CNC(=O)COc2cc(O)c3c(=O)cc(-c4ccccc4)oc3c2)cc1`?
Answer: Activity [2]: Active; Kd [1]: 1.64 µM; Kq [3]: 6.64 10^12/M/s

Question: Which results are given for `O=C(O)CSc1nc2nc[nH]c2c(=O)[nH]1`?
Answer: Activity [2]: Active; Kd [1]: 5.11 µM; Kq [3]: 1.91 10^12/M/s

Question: For `Cc1ccc(CNC(=O)CSc2nc3nc[nH]c3c(=O)[nH]2)cc1`, which Activity [2] is on record?
Answer: Active

Question: What about the Kd [1] of the same compound?
Answer: 8.5 µM

Question: What about the Kq [3] of the same compound?
Answer: 3.68 10^12/M/s

Question: For `Cc1cccc(CNC(=O)CSc2nc3nc[nH]c3c(=O)[nH]2)c1`, which Activity [2] is on record?
Answer: Active

Question: What about the Kd [1] of the same compound?
Answer: 4.67 µM

Question: And the Kq [3]?
Answer: 2.54 10^12/M/s
